We go through two molecules from publication PMC12367827, “Prioritisation of co-formulants and plant protection products for non-dietary risk assessment using NAMs” (Archives of Toxicology, 2025).

In general, IC50 refers to the midpoint of a concentration-inhibition curve. High values mean a need for much substance, low ones inhibition by little substance.

In one data set the target is T1, CYP1A2 (Homo sapiens, UniProt P05177).
T1 construct: recombinant human enzyme in membrane preparation (Promega P450-Glo CYP1A2 Screening System)
T1 sequence (P05177 2-516): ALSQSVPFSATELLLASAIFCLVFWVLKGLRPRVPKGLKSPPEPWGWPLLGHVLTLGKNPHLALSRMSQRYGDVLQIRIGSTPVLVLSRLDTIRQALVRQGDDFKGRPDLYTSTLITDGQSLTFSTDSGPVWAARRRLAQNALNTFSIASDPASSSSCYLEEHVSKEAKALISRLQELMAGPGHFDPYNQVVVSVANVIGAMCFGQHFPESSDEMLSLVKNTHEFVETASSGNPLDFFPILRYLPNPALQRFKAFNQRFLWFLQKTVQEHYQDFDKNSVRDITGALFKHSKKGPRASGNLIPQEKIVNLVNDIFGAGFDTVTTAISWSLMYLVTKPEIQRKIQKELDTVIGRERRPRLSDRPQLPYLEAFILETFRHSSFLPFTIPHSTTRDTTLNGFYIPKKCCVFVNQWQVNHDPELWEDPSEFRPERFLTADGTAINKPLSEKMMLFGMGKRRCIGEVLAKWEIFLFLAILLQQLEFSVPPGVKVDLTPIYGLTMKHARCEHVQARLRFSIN
Briefly: P450-Glo luminescence turnover. The format is biochemical. The following applies: NADPH regeneration system; potassium phosphate buffer; […] °C; luminogenic substrate.

Another data set concerns the target CYP2C19 (Homo sapiens, UniProt P33261). Description: P450-Glo luminescence inhibition assay.

Chain of CYP2C19 (P33261 whole entry): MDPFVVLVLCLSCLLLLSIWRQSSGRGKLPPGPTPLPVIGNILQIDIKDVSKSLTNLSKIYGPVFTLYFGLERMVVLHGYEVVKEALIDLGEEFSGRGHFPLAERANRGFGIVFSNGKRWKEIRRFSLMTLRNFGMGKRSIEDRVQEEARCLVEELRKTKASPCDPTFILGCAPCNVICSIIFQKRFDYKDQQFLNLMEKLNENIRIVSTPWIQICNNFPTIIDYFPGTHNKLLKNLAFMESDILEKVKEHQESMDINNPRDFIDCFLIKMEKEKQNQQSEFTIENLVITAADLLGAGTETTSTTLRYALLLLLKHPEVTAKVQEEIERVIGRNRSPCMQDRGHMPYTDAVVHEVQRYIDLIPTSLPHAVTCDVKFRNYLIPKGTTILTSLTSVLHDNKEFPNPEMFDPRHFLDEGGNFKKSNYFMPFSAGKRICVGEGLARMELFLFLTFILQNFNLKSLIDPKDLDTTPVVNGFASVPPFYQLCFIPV

Turning to `COc1ccc2nc(C3=NC(C(=O)O)CS3)sc2c1` (centres unmarked) [Luciferin-ME], at CYP1A2, the P450-Glo luminescence turnover entry is on record as “Luciferin-ME (CYP1A2) as luminogenic substrate”.
The molecule `CCCCCCCCCC(=O)N(C)C` [NDA, N,N-dimethyldecanamide] gave an IC50 on CYP2C19 of 4.05 µM.
